ChEMBL document CHEMBL1201862, “PubChem BioAssay data set” (2004)
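These data come from cells grown in 96-well plates and exposed to compound for 48 hours at five concentrations. The concentration for 50% growth inhibition is given as GI50.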 Activity calls are given as the source filed them. No stated cut-off is given here; in the data, active = GI50 up to about 1.1 µM and inactive = higher.

What was measured:
Assay in all cases: NCI anticancer screen, dose series, 48 h
SR = system: SR
UACC-257 = system: UACC-257
Hs-578T = system: Hs-578T
ACHN = system: ACHN
IGROV-1 = system: IGROV-1
T47D = system: T47D
OVCAR-8 = system: OVCAR-8
UACC-62 = system: UACC-62
TK-10 = system: TK-10
NCI-H522 = system: NCI-H522
SN12C = system: SN12C
NCI-H23 = system: NCI-H23
HOP-62 = system: HOP-62
SK-OV-3 = system: SK-OV-3
COLO 205 = system: COLO 205
OVCAR-5 = system: OVCAR-5
BT-549 = system: BT-549
OVCAR-3 = system: OVCAR-3
SNB-19 = system: SNB-19
DU-145 = system: DU-145
K562 = system: K562
SK-MEL-2 = system: SK-MEL-2
RXF 393 = system: RXF 393
A549 = system: A549
HCT-15 = system: HCT-15
LOX IMVI = system: LOX IMVI
MDA-MB-231 = system: MDA-MB-231
U-251 = system: U-251
SF-539 = system: SF-539
UO-31 = system: UO-31
MDA-N = system: MDA-N
SK-MEL-28 = system: SK-MEL-28
OVCAR-4 = system: OVCAR-4
EKVX = system: EKVX
SW-620 = system: SW-620
MDA-MB-435 = system: MDA-MB-435
M14 = system: M14
CAKI-1 = system: CAKI-1
786-0 = system: 786-0
SF-268 = system: SF-268
SF-295 = system: SF-295
NCI/ADR-RES = system: NCI/ADR-RES
Malme-3M = system: Malme-3M
NCI-H460 = system: NCI-H460
CCRF-CEM = system: CCRF-CEM
NCI-H226 = system: NCI-H226
MOLT-4 = system: MOLT-4
A498 = system: A498
HL-60 = system: HL-60
HCT-116 = system: HCT-116
PC-3 = system: PC-3
SK-MEL-5 = system: SK-MEL-5
RPMI-8226 = system: RPMI-8226
KM12 = system: KM12
HOP-92 = system: HOP-92
MCF7 = system: MCF7
HCC 2998 = system: HCC 2998
SNB-75 = system: SNB-75
HT-29 = system: HT-29

CSc1nc(C#N)c(/N=C\N(C)C)n1C
GI50 (SR): > 100 µM (inactive) | GI50 (UACC-257): > 100 µM (inactive) | GI50 (Hs-578T): > 100 µM (inactive) | GI50 (ACHN): > 100 µM (inactive) | GI50 (IGROV-1): > 100 µM (inactive) | GI50 (T47D): > 100 µM (inactive) | GI50 (OVCAR-8): > 100 µM (inactive) | GI50 (UACC-62): > 100 µM (inactive) | GI50 (TK-10): > 100 µM (inactive) | GI50 (NCI-H522): > 100 µM (inactive) | GI50 (SN12C): > 100 µM (inactive) | GI50 (NCI-H23): > 100 µM (inactive) | GI50 (HOP-62): > 100 µM (inactive) | GI50 (SK-OV-3): > 100 µM (inactive) | GI50 (COLO 205): > 100 µM (inactive) | GI50 (OVCAR-5): > 100 µM (inactive) | GI50 (BT-549): > 100 µM (inactive) | GI50 (OVCAR-3): > 100 µM (inactive) | GI50 (SNB-19): > 100 µM (inactive) | GI50 (DU-145): > 100 µM (inactive) | GI50 (K562): > 100 µM (inactive) | GI50 (SK-MEL-2): > 100 µM (inactive) | GI50 (RXF 393): > 100 µM (inactive) | GI50 (A549): > 100 µM (inactive) | GI50 (HCT-15): > 100 µM | GI50 (LOX IMVI): > 100 µM (inactive) | GI50 (MDA-MB-231): > 100 µM (inactive) | GI50 (U-251): > 100 µM (inactive) | GI50 (SF-539): > 100 µM (inactive) | GI50 (UO-31): > 100 µM (inactive) | GI50 (MDA-N): > 100 µM (inactive) | GI50 (SK-MEL-28): > 100 µM (inactive) | GI50 (OVCAR-4): > 100 µM (inactive) | GI50 (EKVX): > 100 µM (inactive) | GI50 (SW-620): > 100 µM (inactive) | GI50 (MDA-MB-435): > 100 µM (inactive) | GI50 (M14): > 100 µM (inactive) | GI50 (CAKI-1): > 100 µM (inactive) | GI50 (786-0): > 100 µM (inactive) | GI50 (SF-268): > 100 µM (inactive) | GI50 (SF-295): > 100 µM (inactive) | GI50 (NCI/ADR-RES): > 100 µM (inactive) | GI50 (Malme-3M): > 100 µM (inactive) | GI50 (NCI-H460): > 100 µM (inactive) | GI50 (CCRF-CEM): > 100 µM (inactive) | GI50 (NCI-H226): > 100 µM (inactive) | GI50 (MOLT-4): > 100 µM (inactive) | GI50 (A498): > 100 µM (inactive) | GI50 (HL-60): > 100 µM (inactive) | GI50 (HCT-116): > 100 µM (inactive) | GI50 (PC-3): > 100 µM (inactive) | GI50 (SK-MEL-5): > 100 µM (inactive) | GI50 (RPMI-8226): > 100 µM (inactive) | GI50 (KM12): > 100 µM (inactive) | GI50 (HOP-92): > 100 µM (inactive)

COC(=O)[C@@H]1COC(=O)N1
GI50 (UACC-257): > 100 µM (inactive) | GI50 (Hs-578T): > 100 µM (inactive) | GI50 (ACHN): > 100 µM (inactive) | GI50 (IGROV-1): > 100 µM (inactive) | GI50 (T47D): > 100 µM (inactive) | GI50 (OVCAR-8): > 100 µM (inactive) | GI50 (UACC-62): > 100 µM (inactive) | GI50 (MCF7): > 100 µM (inactive) | GI50 (TK-10): > 100 µM (inactive) | GI50 (NCI-H522): > 100 µM (inactive) | GI50 (SN12C): > 100 µM (inactive) | GI50 (NCI-H23): > 100 µM (inactive) | GI50 (HOP-62): > 100 µM (inactive) | GI50 (SK-OV-3): > 100 µM (inactive) | GI50 (COLO 205): > 100 µM (inactive) | GI50 (OVCAR-5): > 100 µM (inactive) | GI50 (BT-549): > 100 µM (inactive) | GI50 (OVCAR-3): > 100 µM (inactive) | GI50 (SNB-19): > 100 µM (inactive) | GI50 (DU-145): > 100 µM (inactive) | GI50 (K562): > 100 µM (inactive) | GI50 (SK-MEL-2): > 100 µM (inactive) | GI50 (RXF 393): > 100 µM (inactive) | GI50 (A549): > 100 µM (inactive) | GI50 (HCT-15): > 100 µM | GI50 (LOX IMVI): > 100 µM (inactive) | GI50 (MDA-MB-231): > 100 µM (inactive) | GI50 (U-251): > 100 µM (inactive) | GI50 (SF-539): > 100 µM (inactive) | GI50 (UO-31): > 100 µM (inactive) | GI50 (MDA-N): > 100 µM (inactive) | GI50 (SK-MEL-28): > 100 µM (inactive) | GI50 (HCC 2998): > 100 µM (inactive) | GI50 (OVCAR-4): > 100 µM (inactive) | GI50 (EKVX): > 100 µM (inactive) | GI50 (SW-620): > 100 µM (inactive) | GI50 (MDA-MB-435): > 100 µM (inactive) | GI50 (M14): > 100 µM (inactive) | GI50 (CAKI-1): > 100 µM (inactive) | GI50 (786-0): > 100 µM (inactive) | GI50 (SF-268): > 100 µM (inactive) | GI50 (SF-295): > 100 µM (inactive) | GI50 (NCI/ADR-RES): > 100 µM (inactive) | GI50 (Malme-3M): > 100 µM (inactive) | GI50 (SNB-75): > 100 µM (inactive) | GI50 (NCI-H460): > 100 µM (inactive) | GI50 (CCRF-CEM): > 100 µM (inactive) | GI50 (NCI-H226): > 100 µM (inactive) | GI50 (MOLT-4): > 100 µM (inactive) | GI50 (HT-29): > 100 µM (inactive) | GI50 (A498): > 100 µM (inactive) | GI50 (HL-60): > 100 µM (inactive) | GI50 (HCT-116): > 100 µM (inactive) | GI50 (PC-3): > 100 µM (inactive) | GI50 (SK-MEL-5): > 100 µM (inactive) | GI50 (KM12): > 100 µM (inactive) | GI50 (HOP-92): > 100 µM (inactive)
